Measurements taken from US4238508A, “Method for analgesia using 3-hydroxyacetanilide” (The Research Foundation of State University of New York, priority 1979, dated 1980).

Columns and labels:
[1] = in vivo; set-up: species or system white mice; conditions: mouse; for survival at 96 h: ip
Method: ^(a) Mortality determined at 96 hours, all drugs given
intraperitoneally dissolved in saline at 42° C.
receiving same mg dose or saline controls and all acetaminophen groups p
<0.005 using chi square test.

[2] = system: liver; experiment: Gross appearance of livers of mice that died after injection; conditions: white mice
Method: Doses of 400, 600 and 900 milligrams per kilogram of 3-hydroxyacetanilide, of acetaminophen and of normal saline control were administered to white mice.

[3] = system: liver glutathione; experiment: Effect on liver glutathione levels in mice; format: in vivo, mouse; conditions: 600 mg/kg i.p.; for Depletion of mouse liver glutathione: two hours; for Liver glutathione level: two hours after injection, saline 8.2 ± 0.9
Method: A number of mice were given doses of acetaminophen and 3-hydroxyacetanilideat levels of 600 mg/kg of body weight and a number of mice were given normal saline as a control. […] All values were determined at two hours after intraperitoneal drug injection.

[4] = system: plasma glutamate-pyruvate transaminase (GPT); experiment: Plasma glutamate-pyruvate transaminase (GPT) activity in mice; format: in vivo; conditions: for Effect on transaminase activity: 600 mg/kg acetaminophen, 900 mg/kg 3-hydroxyacetanilide; for Transaminase activity in plasma, Mean ± SD: saline 32 ± 18
Method: (§1) The relative effects of 3-hydroxyacetanilide and acetaminophen were compared on plasma glutamate-pyruvate transaminase (GPT) activity. 600 mg/kg of acetaminophen were used in the test; whereas, a larger quantity, 900 mg/kg, of 3-hydroxyacetanilide was used. […] Activity was measured spectrophotometrically at room temperature using a Sigma® Enzyme Kit. The activity is expressed in micromoles per minute per […] of plasma. The blood for the test was collected in a small amount of heparin. Assays were performed within two hours after obtaining the blood. […] There appears to be a correlation between drug dose, amounts of necrosis seen histologically and elevation of transaminase levels.

[5] = system: liver; experiment: Hepatic necrosis; format: in vivo, mice; conditions: compared with acetaminophen
Method: as §1

[6] = Mouse writhing test with 1% acetic acid; format: in vivo; conditions: for Writhes per 5 Minute (SD): 30 minutes prior to test, control 23.2 ± 5.3
Method: To test the effectiveness of 3-hydroxyacetanilide as an analgesic when compared to acetaminophen, a mouse writhing test was used wherein 1% acetic acid is given intraperitoneally 5 minutes prior to counting abdominal writhes made by the animal. The dose of the 1% […] is 0.01 cc/gm of body weight. Prior to counting the writhes, acetaminophen and 3-hydroxyacetanilide were given subcutaneously 30 minutes prior to the test. The control was given normal saline. […] This example therefore illustrates that 3-hydroxyacetanilide is unexpectedly as good an analgesic in this test as acetaminophen and should therefore be used in dosages similar to the dosages known to be effective for actaminophen and since it has almost the same analgesic effect in mice as acetaminophen, it would be expected to have the same analgesic effect as acetaminophen in other mammals.

[7] = British Pat. No. 1,006,558; cited from earlier work
[8] = Roberts and Jollow; cited from earlier work
[9] = system: plasma glutamate-pyruvate transaminase (GPT); conditions: mice, acetaminophen-induced hepatic injury; cited from earlier work
[10] = system: liver; conditions: acetaminophen-induced hepatic injury, mice; cited from earlier work

SMILES | Mortality compared with a comparable dose of acetaminophen [1] | survival at 96 h ([1]; 400 mg/kg) | survival at 96 h ([1]; 600 mg/kg) | survival at 96 h ([1]; 900 mg/kg) | Gross appearance of liver in mice which died [2] | Depletion of mouse liver glutathione [3] | Liver glutathione level [3] | Effect on transaminase activity [4] | Transaminase activity in plasma, Mean ± SD ([4]; 900 mg/kg, n 17) | Elevation in plasma GPT activity ([4]; 900 mg/kg, up to 48 hours after treatment) | Hepatic necrosis [5] | Writhes per 5 Minute (SD) ([6]; 200 mg/kg s.c.) | Writhes per 5 Minute (SD) ([6]; 400 mg/kg s.c.) | Analgesic effect compared with acetaminophen ([6]; s.c., 200 and 400 mg/kg) | Reduction of the number of writhes per 5 minutes ([6]; s.c., 200 and 400 mg/kg) | Anti-pyretic activity [7] | Hepatotoxicity relative to acetaminophen [8] | Transaminase activity in plasma, Mean ± SD ([4]; 600 mg/kg, n 9) | Time of maximum plasma transaminase levels after dose [9] | Hepatic injury, histology [10]
CC(=O)Nc1cccc(O)c1 [3-hydroxyacetanilide] | considerably less mortality | 96% | 96% | 91% | no significant gross abnormality of the liver | much less depletion | 6.2 ± 1.2 mg/gram liver | much less effect | 23 ± 5 IU/ml Plasma | No significant elevation | did not cause a similar level of hepatic necrosis | 11.6 ± 8.1 | 1.3 ± 1.4 | statistically insignificant differences | effectively reduced the number of writhes per 5 minutes | has anti-pyretic activity | substantially less hepatotoxic than acetaminophen | – | – | –
CC(=O)Nc1ccc(O)cc1 [Acetaminophen, 4-hydroxyacetanilide, reference compound] | – | 40% | 20% | 20% | large and grossly congested in appearance | rapid depletion | 2.4 ± 0.6 mg/gram liver | drastically affects the transaminase activity | – | – | – | 10.0 ± 6.2 | 3.5 ± 4.0 | – | effectively reduced the number of writhes per 5 minutes | – | – | 1834 ± 771 IU/ml Plasma | approximately 6 hours | centrilobular necrosis
